Blank lines part the entries; values can stand above or below the compound they belong to. Active and inactive are the calls of the source. The calls are words filed in the database; no cut-off is given here.
Columns and labels:
[1] = biological target: Tyrosine-protein kinase ABL1 (Homo sapiens, UniProt P00519); assay: Inhibition of human N-terminal his tagged native ABL1 (229 to 499 residues) expressed in Sf9 cells using ABLtide as substrate preincubated for 2 hrs followed by ATP addition and measured every 2 mins for […] by spectrophotometric analysis
[2] = biological target: Tyrosine-protein kinase ABL1 (Homo sapiens, UniProt P00519, T315I); assay: Inhibition of human ABL1 T315I mutant (229 to 499 residues) using ABLtide as substrate preincubated for 2 hrs followed by ATP addition and measured every 2 mins for […] by spectrophotometric analysis
Crk-like protein = Crk-like protein (Mus musculus, UniProt P47941, T315I); assay: Inhibition of CrkL in mouse BaF3 cells harbouring BCR-ABL1 T315I mutant measured after 6 hrs by immunoblotting analysis; assay type: cell-based
BaF3 [3] = assay: cells; conditions: Mus musculus, BaF3, 72 h
BaF3 [4] = assay: cells; conditions: Mus musculus, BaF3, 72 h; remark: listed apart in the source
BaF3 [5] = assay: cells; conditions: Mus musculus, BaF3, 72 h; remark: listed apart in the source
BaF3 [6] = assay: cells; conditions: Mus musculus, BaF3, 72 h; remark: listed apart in the source
BaF3 [7] = assay: cells; conditions: Mus musculus, BaF3, 72 h; remark: listed apart in the source
BaF3 [8] = assay: cells; conditions: Mus musculus, BaF3, 72 h; remark: listed apart in the source
BaF3 [9] = assay: cells; conditions: Mus musculus, BaF3, 72 h; remark: listed apart in the source
BaF3 [10] = assay: cells; conditions: Mus musculus, BaF3, 72 h; remark: listed apart in the source
BaF3 [11] = assay: cells; conditions: Mus musculus, BaF3, 72 h; remark: listed apart in the source
BaF3 [12] = assay: cells; conditions: Mus musculus, BaF3, 72 h; remark: listed apart in the source
BaF3 [13] = assay: cells; conditions: Mus musculus, BaF3, 72 h; remark: listed apart in the source
BaF3 [14] = assay: cells; conditions: Mus musculus, BaF3, 72 h; remark: listed apart in the source
BaF3 [15] = assay: cells; conditions: Mus musculus, BaF3, 72 h; remark: listed apart in the source
BaF3 [16] = assay: cells; conditions: Mus musculus, BaF3, 72 h; remark: listed apart in the source
BaF3 [17] = assay: cells; conditions: Mus musculus, BaF3, 72 h; remark: listed apart in the source
BaF3 [18] = assay: Antitumor activity against mouse BaF3 cells harbouring BCR-ABL1 T315I mutant xenografted in Balb/c mouse model assessed as prolongation of animal survival at 100 mg/kg, po administered twice daily for 21 days; assay type: functional, organism-based; conditions: time 21.0 day
BaF3 [19] = assay: cells; conditions: Mus musculus, BaF3, 72 h; remark: listed apart in the source

Chain of Crk-like protein (P47941 whole entry, looked up, stated change not applied): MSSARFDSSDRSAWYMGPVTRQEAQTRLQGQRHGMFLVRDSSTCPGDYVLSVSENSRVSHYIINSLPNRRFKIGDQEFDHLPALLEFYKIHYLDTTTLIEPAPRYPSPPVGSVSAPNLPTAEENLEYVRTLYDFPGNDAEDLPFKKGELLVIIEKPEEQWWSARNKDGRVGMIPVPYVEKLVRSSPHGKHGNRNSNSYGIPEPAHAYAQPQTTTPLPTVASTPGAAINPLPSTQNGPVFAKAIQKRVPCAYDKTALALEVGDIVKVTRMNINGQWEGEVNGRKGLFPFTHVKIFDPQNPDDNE

Compound: CC(C)(C)c1cc(NC(=O)Nc2cccc(Cl)c2Cl)n(-c2ccc3c(c2)C[C@@H](C(=O)O)NC3)n1
IC50 [1]: 57 nM
IC50 [2]: 773 nM

Compound: CNC(=O)c1cc(Oc2ccc(NC(=O)Nc3cc(C(C)(C)C)nn3C)c(F)c2)ccn1
IC50 [1]: 88 nM
IC50 [2]: 80 nM

Compound: CNC(=O)c1cc(Oc2ccc(NC(=O)Nc3cc(C(C)(C)C)nn3-c3ccc4c(c3)CCNC4)c(F)c2)ccn1
IC50 [1]: 9 nM
IC50 [2]: 17 nM

Compound: Cc1ccc(NC(=O)c2ccc(CN3CCN(C)CC3)cc2)cc1Nc1nccc(-c2cccnc2)n1 [IMATINIB]
Activity (BaF3 [18]): inactive

Compound: Cc1cn(-c2cc(NC(=O)c3ccc(C)c(Nc4nccc(-c5cccnc5)n4)c3)cc(C(F)(F)F)c2)cn1 [NILOTINIB]
IC50 (Crk-like protein): > 5000 nM
IC50 (BaF3 [3]): 9500 nM
IC50 (BaF3 [11]): 95 nM

Next, values leading:

IC50 [2]: 711 nM
Compound: CC(C)(C)c1cc(NC(=O)Nc2cccc(Cl)c2Cl)n(-c2ccc3ncccc3c2)n1

IC50 (Crk-like protein): > 5000 nM
IC50 (BaF3 [3]): 3800 nM
IC50 (BaF3 [4]): 0.4 nM
IC50 (BaF3 [5]): 7.3 nM
IC50 (BaF3 [6]): 2.8 nM
IC50 (BaF3 [7]): 0.3 nM
IC50 (BaF3 [8]): 2 nM
IC50 (BaF3 [9]): 1 nM
IC50 (BaF3 [10]): 8 nM
IC50 (BaF3 [11]): 2 nM
IC50 (BaF3 [12]): 8 nM
IC50 (BaF3 [13]): 65 nM
IC50 (BaF3 [14]): 2.3 nM
IC50 (BaF3 [15]): 1.1 nM
IC50 (BaF3 [16]): 2.7 nM
IC50 (BaF3 [17]): 1.2 nM
Compound: Cc1nc(Nc2ncc(C(=O)Nc3c(C)cccc3Cl)s2)cc(N2CCN(CCO)CC2)n1 [DASATINIB ANHYDROUS]

IC50 (BaF3 [4]): 104 nM
IC50 (BaF3 [5]): 110 nM
IC50 (BaF3 [6]): 180 nM
IC50 (BaF3 [7]): 130 nM
IC50 (BaF3 [8]): 80 nM
IC50 (BaF3 [9]): 190 nM
IC50 (BaF3 [10]): 84 nM
IC50 (BaF3 [11]): 190 nM
IC50 (BaF3 [12]): 200 nM
IC50 (BaF3 [13]): 88 nM
IC50 (BaF3 [19]): 74 nM
IC50 (BaF3 [14]): 84 nM
IC50 (BaF3 [15]): 65 nM
IC50 (BaF3 [16]): 130 nM
IC50 (BaF3 [17]): 160 nM
Compound: Cc1cc(Nc2cc(N3CCN(C)CC3)nc(Sc3ccc(NC(=O)C4CC4)cc3)n2)n[nH]1 [TOZASERTIB]
